Laboratory results: patent publication US5672603A, “Apoptosis regulating composition” (Otsuka Pharmaceutical Co., Ltd., priority 1991, dated 1997)

Tested on: HL-60 cells
Assay: Differentiation inducing test: reactivity of HL-60 cells with monoclonal antibody FH-6 (sialyl Le^X)
Assay type: cell-based, human
Details: 2 hours; for Positive rate (%), FH-6: control 95
Description: The monoclonal antibody FH-6 capable of recognizing sialyl Le^X was fluoresein (FITC)-labeled, and the reactivity between the active ingredient compound of the present invention and FH-6 was examined by flow cytometry as follows.
The test compound solutions prepared as described above under (3) were added to HL-60 cells prepared as described above under (1) to a final concentration of 1.0 μg/ml or 10 μg/ml. Cultivation was conducted in a 5% carbon dioxide gas incubator at 37° C. for 2 hours. Thereafter, the cell concentration was adjusted to 1 x 10^6 cells/ml and 100 μl of each aliquot was reacted with 10 μl of the fluorescein-labeled FH-6 solution, followed by flow cytometry.

COc1ccc(C(=O)N2CCN(c3ccc4c(c3)CCC(=O)N4)CC2)cc1OC [Compound 1, 6-[4-(3,4-Dimethoxybenzoyl)-1-piperazinyl]-3,4-dihydrocarbostyril]
Sialic acid on HL-60 cell surface (1.0 or 10 μg/ml): loss of sialic acid from the HL-60 cell surface
Positive rate (%), FH-6 (1.0 μg/ml): 82%
Positive rate (%), FH-6 (10 μg/ml): 76%
